Data published in article PMC10914731, “Homo-BacPROTAC-induced degradation of ClpC1 as a strategy against drug-resistant mycobacteria” (Nature Communications, 2024).
≈ marks a conversion by molar mass, not a printed value. Where “and” joins values, the source holds several entries; their conditions need not be identical. Identical values can stand only once. Like-named read-outs stand apart in the source and are kept apart here.

Experiments:
Staphylococcus aureus = test: MIC ESKAPES panel, Staphylococcus aureus; format: cell-based
Experimental: (§1) Minimum inhibitory concentration (MIC) against ESKAPES panel of Gram positive and Gram negative pathogens (Enterococcus faecium, Staphylococcus aureus, Klebsiella pneumoniae, Acinetobacter baumannii, Pseudomonas aeruginosa, Enterobacter cloacae and Salmonella typhimurium [ESKAPES panel]) were determined at the FNDR by the standard broth dilution method [CLSI, M100]. […] Mueller Hinton broth (MHB) medium was used to grow ESKAPES panel strains. The individual cultures were added as 200 μL (inoculum of 3–7 × 10^5 cfu/ml) to the respective assay plates in each well to all columns, except the media control (200 μL of medium). […] The assay plates were incubated at 37 °C, and the results were noted on the 2nd day as turbidometric readout. The clear wells indicated inhibition of growth, while the turbid wells indicated uninhibited growth.

Msm 607 = test: microbe, parasite or virus in culture; format: cell-based
[1] = test system: Mtb (katG del) ATCC 35822; test: microbe, parasite or virus in culture; format: cell-based
Mtb # 8673 = test: microbe, parasite or virus in culture; format: cell-based
Mycobacterium avium = test: microbe, parasite or virus in culture; format: cell-based
Caco-2 monolayers = test: in vitro; conditions: human, Caco-2
Method in brief: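 Values are bidirectional Caco-2 apparent permeabilities, P(A−B) and P(B−A), given in 10^-6 cm s-1. The efflux ratio divides P(B−A) by P(A−B), and intrinsic permeability averages the two directions.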

[2] = test system: M. tuberculosis H37Rv (ATCC 27294); test: microbe, parasite or virus in culture; format: cell-based
Pseudomonas aeruginosa = test: MIC ESKAPES panel, Pseudomonas aeruginosa; format: cell-based
Experimental: as §1

Msm #607 = test: Minimum bactericidal concentration (MBC), Msm #607; format: cell-based, Mycobacterium smegmatis; conditions: for MBC: Mycolicibacterium smegmatis
Mtb ATCC 35825 = test: microbe, parasite or virus in culture; format: cell-based
[3] = Hepatocyte stability, mice; format: in vitro ADME; conditions: mouse, pH 7.4
Method in brief: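 Parent depletion by HPLC-MS/MS in mouse hepatocyte suspension (50% serum, ~1 million cells/mL) with 1 µM compound over up to 6 h at 37 °C. Half-lives were scaled to % Qh using the well-stirred liver model.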

[4] = single well replicates, listed as 12 (UdSBI-4377)

`COC(c1ccccc1)C1NC(=O)C(C)NC(=O)C(CC(C)CO)N(C)C(=O)C(Cc2cn(C)c3ccccc23)NC(=O)C(Cc2cn(CCCCCn3cc(CC4NC(=O)C(CC(C)C)N(C)C(=O)C(C(C)C)NC(=O)C(C(OC)c5ccccc5)NC(=O)C(C)NC(=O)C(CC(C)CO)N(C)C(=O)C(Cc5cn(C)c6ccccc56)NC4=O)nn3)nn2)NC(=O)C(CC(C)C)N(C)C(=O)C(C(C)C)NC1=O` (centres unmarked) [Compound 12] showed an MIC (Staphylococcus aureus; Gram-Positive Bacteria, replicates 1-3, listed as 12 (UdSBI-4377)) of over 50 µM, an MIC (Staphylococcus aureus; Staphylococcus aureus, Gram positive, n = 3 well replicates) of over 50 µM and an MIC (Staphylococcus aureus; Staphylococcus aureus, Gram-Positive Bacteria, replicates 1-3) of over 99 µg/mL. The MIC (Msm 607; Mycolicibacterium smegmatis, 607, read-out: MIC Msm 607) was 0.9 ± 0.3 µM (≈ 1.78 µg/mL), the MIC (Msm 607; Mycolicibacterium smegmatis, 607, read-out: MIC Msm #607, individual example (Supplementary Table 11)) was 0.8 µM and 1.5 µg/mL and the MIC (Msm 607; Mycolicibacterium smegmatis, 607, read-out: Msm 607 MIC, single determinations) was 1.56 µM (≈ 3.09 µg/mL). The MIC (Msm 607; Mycolicibacterium smegmatis, ATCC607, Set-1, read-out: MIC (Msm ATCC607) Set-1) was 0.78 µM and 1.54 µg/mL, the MIC (Msm 607; Mycolicibacterium smegmatis, ATCC607, Set-2, read-out: MIC (Msm ATCC607) Set-2) was 1.54 µM and 3.06 µg/mL and the MIC (Msm 607; Mycolicibacterium smegmatis, ATCC607, Set-3, done at a different day than Set 1 and Set 2, read-out: MIC (Msm ATCC607) Set-3) was 0.78 µM and 1.54 µg/mL. For the same molecule, the MIC (Msm 607; Mycolicibacterium smegmatis, ATCC607, mean of 3 experiments ± SD, read-out: MIC including standard deviations (Msm ATCC607)) was 1.03 µM and 2.04 µg/mL, the “Msm 607 MIC” value (Msm 607; single determinations, listed as 12 (UdSBI-4377)) was 0.780 µM and the MIC ([1]; M. tuberculosis ATCC 35822, single well replicates) was 0.098 µM (≈ 0.194 µg/mL). For the same molecule, the MIC ([1]; Mycobacterium tuberculosis, ATCC35822, M. tuberculosis ATCC 35822, single well replicates) was 0.098 µM (≈ 0.194 µg/mL), the MIC ([1]; Mycobacterium tuberculosis, ATCC35822, Mtb (katG del) ATCC 35822, mean ± SD, n = 3 well replicates) was 0.1 µM (≈ 0.198 µg/mL) and the MIC (Mtb # 8673; Mycobacterium tuberculosis, mean, n = 2 well replicates) was < 0.1 µM and < 0.2 µg/mL. The MIC (Mtb # 8673; Mycobacterium tuberculosis, single well replicates) was < 0.1 µM and < 0.19 µg/mL, the MIC (Mtb # 8673; [4]) was under 0.1 µM and the “MIC Mtb # 8673” value (Mtb # 8673; [4]) was under 0.19 µg/mL. The MIC (Mycobacterium avium; Experiment 1, listed as 12 (UdSBI-4377), read-out: MIC Mycobacterium avium) was over 50 µM, the “MIC (µg/ml) Mycobacterium avium” value (Mycobacterium avium; Experiment 2, three replicate columns) was over 99.02 µg/mL and the MIC (Mycobacterium avium; Experiment 2, three replicate columns, read-out: MIC (µM) Mycobacterium avium) was over 50 µM. For the same molecule, the MIC (Mycobacterium avium; Mycobacterium avium, Experiment 1, read-out: MIC Mycobacterium avium) was over 99 µg/mL, the MIC (Mycobacterium avium; Mycobacterium avium, Experiment 2, three replicate columns, read-out: MIC (µM) Mycobacterium avium) was over 50 µM and the MIC (Mycobacterium avium; Mycobacterium avium, Experiment 2, three replicate columns, read-out: MIC (µg/ml) Mycobacterium avium) was over 99 µg/mL. For the same molecule, the MIC (Mycobacterium avium; Mycobacterium avium, mean ± SD, read-out: MIC Mycobacterium avium) was over 50 µM, the “CACO permeability PEAB” value (Caco-2 monolayers) was 0.73 ×10⁻⁶ cm/s and the “CACO permeability PEBA” value (Caco-2 monolayers) was 0.25 ×10⁻⁶ cm/s. For the same molecule, the “Caco-2 Efflux ratio” value (Caco-2 monolayers) was 0.3, the “Caco-2 Int. Perm” value (Caco-2 monolayers) was 0.5 and the “Caco-2 permeability P (A-B)” value (Caco-2 monolayers) was 0.7. For the same molecule, the “Caco-2 permeability P (B-A)” value (Caco-2 monolayers) was 0.2, the MIC ([2]; M. tuberculosis H37Rv 27294, single well replicates, read-out: MIC) was 0.098 µM (≈ 0.194 µg/mL) and the MIC ([2]; Mycobacterium tuberculosis, M. tuberculosis H37Rv 27294, single well replicates, read-out: MIC) was 0.098 µM (≈ 0.194 µg/mL). For the same molecule, the MIC ([2]; Mycobacterium tuberculosis, M. tuberculosis H37Rv strain, read-out: MIC Mtb H37Rv Mean ± SD) was 0.1 µM (≈ 0.198 µg/mL), the MIC ([2]; Mycobacterium tuberculosis, Mtb H37Rv (Supplementary Table 2), read-out: MIC Mtb) was 0.1 µM (≈ 0.198 µg/mL) and the MIC ([2]; Mycobacterium tuberculosis, Mtb H37Rv, mean ± SD, n = 3 well replicates, read-out: MIC) was 0.1 µM (≈ 0.198 µg/mL). The MIC ([2]; Mycobacterium tuberculosis, Set 1, read-out: MIC (Mtb H37Rv) Set 1) was 0.05 µM and 0.095 µg/mL, the MIC ([2]; Mycobacterium tuberculosis, Set 2, read-out: MIC (Mtb H37Rv) Set 2) was 0.05 µM and 0.095 µg/mL and the MIC ([2]; Mycobacterium tuberculosis, Set 3, done at a different day than Set 1 and Set 2, read-out: MIC (Mtb H37Rv) Set 3) was 0.05 µM and 0.095 µg/mL. The MIC ([2]; Mycobacterium tuberculosis, individual example (Supplementary Table 11), read-out: MIC Mtb H37Rv) was 0.05 µM and 0.1 µg/mL, the MIC ([2]; Mycobacterium tuberculosis, individual measurements (source data), read-out: Mtb MIC) was 0.097 µM (≈ 0.192 µg/mL) and the MIC ([2]; Mycobacterium tuberculosis, mean of 3 experiments +/- SD, unit taken from the sets above in the same table, read-out: MIC data (Mtb H37Rv) (+/- SD)) was 0.05 µM and 0.1 µg/mL. For the same molecule, the MIC ([2]; Mycobacterium tuberculosis, single determinations, read-out: Mtb MIC) was 0.097 µM (≈ 0.192 µg/mL), the MIC ([2]; Mycobacterium tuberculosis, value of the earlier manuscript version quoted in the peer review file, read-out: inhibition of the Mtb growth (MIC)) was 0.097 µM (≈ 0.192 µg/mL) and the MIC ([2]; individual measurements (source data), read-out: Mtb MIC) was 0.097 µM (≈ 0.192 µg/mL). For the same molecule, the MIC (Pseudomonas aeruginosa; Gram-Negative Bacteria, replicates 1-3, listed as 12 (UdSBI-4377)) was over 50 µM, the MIC (Pseudomonas aeruginosa; Pseudomonas aeruginosa, Gram negative, n = 3 well replicates) was over 50 µM and the MIC (Pseudomonas aeruginosa; Pseudomonas aeruginosa, Gram-Negative Bacteria, replicates 1-3) was over 99 µg/mL. For the same molecule, the “colony growth after replating (MBC assay)” value (Msm #607) was “growth of colonies could be observed across all tested concentrations”, the MBC (Msm #607; ATCC607, read-out: MBC (from Set 3) Msm ATCC 607) was > 99 µg/mL and > 50 µM and the MBC (Msm #607; read-out: MBC Msm #607) was > 50 µM and > 99 µg/mL. For the same molecule, the MIC (Mtb ATCC 35825; Mycobacterium tuberculosis, ATCC35825, mean, n = 2 well replicates) was < 0.1 µM and < 0.2 µg/mL, the MIC (Mtb ATCC 35825; Mycobacterium tuberculosis, ATCC35825, single well replicates) was < 0.19 µg/mL and < 0.1 µM and the MIC (Mtb ATCC 35825; [4]) was under 0.1 µM. For the same molecule, the “MIC Mtb ATCC 35825” value (Mtb ATCC 35825; [4]) was under 0.19 µg/mL and the “Hepatocyte Mice” value [3] was 15 %Qh.
